Like-named read-outs stand apart in the source and are kept apart here.
System: Primary human skin fibroblasts
Assay: apoA-I-mediated cholesterol efflux study (promotion of HDL biogenesis) with compounds
Assay type: cell-based
Conditions: for EC50: Homo sapiens, Skin fibroblast, [3H]-cholesterol-labelled, cholesterol-loaded fibroblasts, 5 μg/ml apoA-I for 24 h, compound added during equilibration and apoA-I treatment
Procedure: FIGS. 17(A) to 17(C) show rutin (A), acarbose (B) and docetaxel (C) can promote apoA-I-mediated cholesterol efflux. Primary human skin fibroblasts were labelled with 0.2 μCi/ml of [^3H]-cholesterol during growth, loaded with 30 μg/ml of unlabeled cholesterol for 24 h, equilibrated for 24 h, and treated with 5 μg/ml of apoA-I for 24 h to determine efflux of cellular cholesterol by apoA-I. The indicated concentrations of rutin, acarbose and docetaxel were added during the equilibration and apoA-I treatment period. Results are expressed as percentage of total (cell plus medium) [^3H]-sterol appearing in the medium. Values are the mean+SD of quadruplicate determinations. One-way analysis of variance with Dunnett's post-hoc correction was performed to calculate multiplicity-adjusted P values. *P<0.05; **P<0.001; ***P<0.0001 compared with the group treated with apoA-I alone.
To investigate the biological activity of the 51 compounds identified in Example 3 in modulating HDL biogenesis, we performed an apoA-I-mediated cholesterol efflux study as described previously (see Choi, H. Y. et al., J Biol Chem 278, 32569-32577 (2003)).

Structure (SMILES)	EC50 (read-out: EC50 value, promotion of apoA-I-mediated HDL biogenesis) [µM]	effect on apoA-I-mediated cholesterol efflux (FIG. 17, compared with the group treated with apoA-I alone)	EC50 (read-out: half-maximal effective concentration (EC50), promotion of apoA-I-mediated HDL biogenesis) [µM]	potency rank in promoting HDL biogenesis among the 3 most active compounds (dose-response curves, FIG. 17)
C[C@H]1O[C@H](O[C@H]2[C@H](O)[C@@H](O)[C@@H](O[C@H]3[C@H](O)[C@@H](O)C(O)O[C@@H]3CO)O[C@@H]2CO)[C@H](O)[C@@H](O)[C@@H]1N[C@H]1C=C(CO)[C@@H](O)[C@H](O)[C@H]1O (stereo partly shown) [No. 2, Acarbose]	6.59	–	–	–
CC(=O)O[C@@]12CO[C@@H]1C[C@H](O)[C@@]1(C)C(=O)[C@H](O)C3=C(C)[C@@H](OC(=O)[C@H](O)[C@@H](NC(=O)OC(C)(C)C)c4ccccc4)C[C@@](O)([C@@H](OC(=O)c4ccccc4)[C@H]21)C3(C)C [No. 17, Docetaxel]	–	promote	0.00072	most potent

— patent publication US20200129535A1, “DESMOCOLLIN 1 INHIBITORS FOR THE PREVENTION OR TREATMENT OF ATHEROSCLEROSIS” (priority 2017, published 2020)
